# Source: patent US11478451B1, “Macrocyclic chlorine substituted indole derivatives” (Bayer Aktiengesellschaft, priority 2017, dated 2022)
# Structures can show the parent of a compound that is named as a salt. Where two headings read alike, the source gives them in different places.
# Legend:
# MV-4-11 cells = assay: Antiproliferation assay (CellTiter-Glo, 72 h), MV-4-11; type: cell-based; conditions: IC50, median; MV-4-11, 72 h; read-out: Antiproli MV-4-11 [M] median
# Experimental: (§1) Assessment of the Anti-Proliferative Effect of Compounds in Different Cell Lines
# (§2) The impact of compounds on the proliferation of different cell lines was assessed using the CellTiter-Glo® Luminescent Cell Viability reagent from Promega (G7573).
# (§3) In parallel, cells were plated in a reference (day 0) plate for time zero determination.
# (§4) Rim wells were excluded. The cells were incubated for 72 h hours in a humidified incubator at 37° C. The day 0 plate was measured by adding 30 μL/well of CTG solution (CellTiter-Glo® Luminescent Cell Viability reagent, Promega G7573) to time zero wells in the reference plate followed by a 10 minutes incubation and luminescence reading at 0.1 ms. using the PHERAstar FS microplate reader (BMG Labtech).
# (§5) After 72 h incubation, the treated plates were measured in the same way as the day 0 plate mentioned above.
# MCL-1 = MCL-1 (Homo sapiens (Human), UniProt Q07820, K194A/K197A/R201A); assay: Protein-protein interaction assay MCL-1/Noxa BH3 peptide (MCL-1 assay), TR-FRET; type: binding; conditions: IC50, median; MCL-1/Noxa BH3 TR-FRET
# Experimental: The dose-dependent inhibition by the compounds described in this invention of the interaction between MCL-1 and the BH3 domain of Noxa (both human) was determined using a steady state binding competition assay with time-resolved fluorescence energy transfer (TR-FRET) readout. […] The MBP-MCL-1 was purchased from Beryllium (Bedford, Mass., USA). The expression and purification of this protein construct has been described elsewhere (DOI:10.1371/journal.pone.0125010). The Noxa BH3-derived peptide can be obtained from e.g. Biosyntan (Berlin, Germany), 50812.1.
# For that, 100-fold concentrated DMSO solutions were prepared by serial dilutions (1:3.4) of a 2 mM stock solution in a clear, 384-well microtiter plate (Greiner Bio-One, Frickenhausen, Germany). From there, 50 nl were transferred in a dark test plate (Greiner Bio-One, Frickenhausen, Germany). […] This was followed by a 10-minute incubation step at 22° C. for pre-equilibration of the putative complex between MBP-MCL-1 and the compounds.
# The mixture was incubated in the dark for one hour at 22° C. and then overnight at 4° C.
# The resulting data (ratio) were normalized, taking 0% inhibition as the mean value of control measurements (usually 32 data points) where all reagents were included. In this case 50 nl DMSO were used instead of compounds. […] IC50 values were determined by regression analysis based on a 4 parameter equation (minimum, maximum, IC50, Hill; Y=Max+(Min−Max)/(1+(X/IC50)^Hill) using the Screener Software (Genedata).
# SUDHL5 cells [1] = assay: Antiproliferation assay (CellTiter-Glo, 72 h), SUDHL5; type: cell-based; conditions: IC50, median, SUDHL5, 72 h, read-out: Antiproli SUDHL5 [M] (median)
# In short: (§6)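 CellTiter-Glo luminescence readout; 72 h compound exposure, 37 °C, humidified; rim wells excluded; time-zero reference plate plated in parallel and read identically.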
# MCL1 protein = MCL1 protein (Homo sapiens (Human), UniProt Q07820); assay: PIxEL: protein-protein interaction in permeabilized cells by ELISA (MCL1/biotin-BIM BH3 peptide, RKO cells); type: cell-based; conditions: IC50, median, serum free
# Experimental: PIxEL: Protein-Protein Interaction in Permeabilized Cells by ELISA
# Most MCL1 protein molecules are localized at the mitochondria outer membrane and sequester pro-apoptotic proteins through binding of their BCL2 homology domain 3 (BH3 domain). MEB buffer (150 mM mannitol, 10 mM HEPES pH 7.5, 50 mM KCl, 20 μM EDTA, 20 μM EGTA, 5 mM potassium succinate, 0.1% protease-free BSA (SIGMA) with low dose digitonin (0.002%) permeabilizes plasma membrane while leaves live mitochondria, where MCL1 maintains its native localization and conformation. Unlike biophysical assays (e.g. TR-FRET) that use truncated recombinant MCL1 protein, this assay uses full length endogenous MCL1 protein at mitochondria outer membrane. It measures the interaction between MCL1 protein and biotinylated BIM BH3 peptide. Compounds can compete with BIM BH3 peptide to bind to MCL1 protein.
# On day 1, RKO colon cancer cell line cells were plated at 0.8 million cells/ml, 100 μl/well in 96-well flat bottom TC plates (Corning). MCL1 antibody (Santa Cruz sc-12756) were diluted at 200 fold (final concentration 1 μg/ml) in carbonate buffer (Thermo Fisher Scientific, pH 9.6), and 50 μl of diluted antibody was added to each well of high bind ELISA plates ([…]). Each plate was tapped to make sure liquid covering entire bottom of wells and incubate at 37° C. overnight.
# On the second day, MCL1 antibody was washed from ELISA plate. 250 μl Odyssey® Blocking Buffer (PBS) (Li-Cor) was added to each well, incubated at room temperature for at least 1 hour, then washed once with 250 μl 1×PBST. Plates with RKO cells were gently washed once with 100 μl/well PBS, once with 100 μl/well MEB buffer without digitonin, then 100 μl of MEB buffer with 0.002% digitonin was gently added to each well. Compounds were added with HP Tecan compound dispenser in 3-fold dilution series, highest dose 30 μM, 10-dose per compound in quadruplicates. Biotin-BIM peptide (synthesized by 21st Century) was added with HP Tecan compound dispenser at 0.2 μM immediately after the addition of compounds. Plates were rocked for 1 hour at room temperature. Then MEB buffer was aspirated and 50 μl of CHAPS buffer (50 mM Tris-Cl, pH 7.4, 150 mM NaCl, 1% CHAPS, 1 mM EDTA, 1 mM EGTA, cOmplete protease inhibitors (Roche), PhosSTOP (Roche)) was added to each well. Plates were rocked for 1 hour at 4° C., then 45 μl cell lysate from each well were transferred to ELISA plates coated with MCL1 antibody. Plates were incubated overnight in the cold room with rocking.
# On the third day, ELISA plates were washed once with 250 μl 1×PBST. Streptavidin-poly-HRP (Thermo Fisher Scientific) was diluted to 20 ng/ml in Odyssey blocking buffer plus 0.05% Triton-100, and 100 μl was added to each well of the ELISA plate. Plates were incubated at RT from 1 hour with rocking, then washed with 100 μL 1×PBST for 3 times. Each SuperSignal ELISA Femto Maximum Sensitivity substrate was added to a 50-ml tube and mixed, then 100 μl of mixed substrate was added to each well. Plates were shaken for 1 minute then luminescence was measured by Envision plate reader […]. Signal of each well were normalized by no-compound control and no-cell control. IC50 was calculated using Graphic Pad PRISM software.
# SUDHL5 cells [2] = assay: Induction of cytotoxicity (CellTiter-Glo, 5 h), SUDHL5; conditions: SUDHL5, 5 h
# SNU-389 cells = assay: Antiproliferation assay (CellTiter-Glo, 72 h), SNU-389; type: cell-based; conditions: 72 h; read-out: Antiproli SNU-389 [M] median
# Experimental: as §1, §2, §3, §4, §5
# DMS-114 cells = assay: Antiproliferation assay (CellTiter-Glo, 72 h), DMS-114; type: cell-based; conditions: Homo sapiens, DMS-114, 72 h; read-out: Antiproli DMS-114 [M] median
# Experimental: as §1, §2, §3, §4, §5
# HMC-1-8 cells = assay: Antiproliferation assay (CellTiter-Glo, 72 h), HMC-1-8; type: cell-based; conditions: IC50, median; HMC-1-8, 72 h; read-out: Antiproli HMC-1-8 [M] median
# In short: as §6
# SUDHL10 cells [3] = assay: Induction of cytotoxicity (CellTiter-Glo, 5 h), SUDHL10; conditions: Homo sapiens, SU-DHL10, 5 h, read-out: Cytotox SUDHL10 [M] (median), IC50, median; SUDHL10, 5 h
# [4] = the molecule shown is the open-chain precursor, crosslinker bond, 11-membered ring, MeCN
# SUDHL5 cells [5] = assay: Induction of caspase-3/7 activity (Caspase-Glo 3/7), SUDHL5; type: cell-based; conditions: EC50, median, SUDHL5, 3 h treatment
# In short: (§7)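 Caspase-Glo 3/7 luminescence after 3 h compound treatment, 37 °C, humidified; medium-only background subtracted; rim wells excluded.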
# AMO-1 cells = assay: Antiproliferation assay (CellTiter-Glo, 72 h), AMO-1; type: cell-based; conditions: IC50, median, AMO-1, 72 h, read-out: Antiproli AMO-1 [M] median
# In short: as §6
# SUDHL10 cells [6] = assay: Induction of caspase-3/7 activity (Caspase-Glo 3/7), SUDHL10; type: cell-based; conditions: EC50, median; SUDHL10, 3 h treatment; listed as 082
# In short: as §7
# [7] = Homo sapiens, SU-DHL-5, 5 h, read-out: Cytotox SUDHL5 [M] (median), IC50, median
# MCL-1, sequence (Q07820 whole entry K194A/K197A/R201A, looked up, the tested form may be a part): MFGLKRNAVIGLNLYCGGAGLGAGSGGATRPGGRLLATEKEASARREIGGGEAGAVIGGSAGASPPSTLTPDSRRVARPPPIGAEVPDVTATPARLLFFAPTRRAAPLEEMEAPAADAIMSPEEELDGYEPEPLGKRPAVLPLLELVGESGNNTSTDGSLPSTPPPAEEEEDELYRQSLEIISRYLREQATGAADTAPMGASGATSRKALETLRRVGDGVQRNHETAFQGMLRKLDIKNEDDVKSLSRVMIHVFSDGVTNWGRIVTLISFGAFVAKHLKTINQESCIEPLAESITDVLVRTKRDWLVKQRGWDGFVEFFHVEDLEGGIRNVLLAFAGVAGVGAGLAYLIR
# MCL1 protein, sequence (Q07820 whole entry): as the sequence (Q07820 whole entry K194A/K197A/R201A, looked up, the tested form may be a part) above, with A194K, A197K, A201R counted along it
compound,measurement,setting,value
"Cc1c2c(nn1C)CN(C)CCCCn1c(C(=O)O)c(CCCOc3cccc4cc(F)ccc34)c3ccc(Cl)c-2c31 (single isomer, unassigned; enantiomer 2) [Example 32, (−)-4-chloro-7-{3-[(6-fluoronaphthalen-1-yl)oxy]propyl}-2,3,14-trimethyl-10,11,12,13,14,15-hexahydro-2H-pyrazolo[3′,4′:8,9][1,6]diazacycloundecino[10,11,1-hi]indole-8-carboxylic acid-N-ethylethanamine salt (Enantiomer 2)]",IC50,MV-4-11 cells,1.4e-05 M
same,IC50,MCL-1,26 nM
same,IC50,SUDHL5 cells [1],6e-06 M
same,IC50,MCL1 protein,19100 nM
same,IC50,"SUDHL5 cells [2]; read-out: Cytotox SUDHL5 [M] (median), IC50, median",9.3e-06 M
"Cc1c2c(nn1C)COCC1CC1Cn1c(C(=O)O)c(CCCOc3cccc4ccccc34)c3ccc(Cl)c-2c31 (single isomer, unassigned; stereoisomer 2) [Example 66, (9aR,10aS or 9aS,10aR)-3-chloro-4,5-dimethyl-14-{3-[(naphthalen-1-yl)oxy]propyl}-5,7,9a,10,10a,11-hexahydro-9H-cyclopropa[3,4]pyrazolo[4′,3′:9,10][1,6]oxazacycloundecino-[8,7,6-hi]indole-13-carboxylic acid—Stereoisomer 2]",IC50,SNU-389 cells,5.76e-07 M
same,IC50,DMS-114 cells,3.15e-07 M
same,IC50,MCL1 protein,1740 nM
same,IC50,HMC-1-8 cells,1e-06 M
same,IC50,SUDHL10 cells [3],1.4e-07 M
CCOC(=O)c1[nH]c2c(-c3c(CO)nn(CCCO[Si](C)(C)C(C)(C)C)c3C)c(Cl)ccc2c1CCCOc1cccc2ccccc12,"ring closure, isolated yield","[4]; (Z)-1,4-dichlorobut-2-ene/Cs2CO3/NaI, 31.9 mM, 70.0 °C",68%
"Cc1c2c(nn1C)COCC1CC1Cn1c(C(=O)O)c(CCCOc3cccc4ccccc34)c3ccc(Cl)c-2c31 (single isomer, unassigned) [Example 82, 3-chloro-4,5-dimethyl-14-{3-[(naphthalen-1-yl)oxy]propyl}-5,7,9a,10,10a,11-hexahydro-9H-cyclopropa[3,4]pyrazolo[4′,3′:9,10][1,6]oxazacycloundecino[8,7,6-hi]indole-13-carboxylic acid]",IC50,MCL-1,1.6 nM
same,IC50,"SUDHL5 cells [1]; Homo sapiens, SU-DHL-5, 72 h",8.1e-07 M
same,IC50,MCL1 protein,225 nM
same,EC50,SUDHL5 cells [5]; listed as 082,490 nM
same,IC50,AMO-1 cells; listed as 082,2.9e-06 M
same,IC50,SUDHL5 cells [2]; [7],4.9e-07 M
same,EC50,SUDHL10 cells [6],1100 nM
"Cc1c2c(nn1C)COCC1CC1Cn1c(C(=O)O)c(CCCOc3cccc4ccccc34)c3ccc(Cl)c-2c31 (single isomer, unassigned; stereoisomer 1) [Example 65, (9aS,10aR or 9aR,10aS)-3-chloro-4,5-dimethyl-14-{3-[(naphthalen-1-yl)oxy]propyl}-5,7,9a,10,10a,11-hexahydro-9H-cyclopropa[3,4]pyrazolo[4′,3′:9,10][1,6]oxazacycloundecino-[8,7,6-hi]indole-13-carboxylic acid—Stereoisomer 1]",IC50,MCL-1,2.7 nM
same,IC50,"SUDHL5 cells [1]; Homo sapiens, SU-DHL-5, 72 h",2.7e-07 M
same,IC50,MCL1 protein,752 nM
same,IC50,HMC-1-8 cells,2.5e-06 M
same,EC50,"SUDHL5 cells [5]; Homo sapiens, SU-DHL-5, 3 h",270 nM
same,IC50,"AMO-1 cells; Homo sapiens, AMO1, 72 h",6e-07 M
same,IC50,SUDHL5 cells [2]; [7],3.3e-07 M
CCOC(=O)c1[nH]c2c(-c3c(CC)nn(CCN4CCOCC4)c3CNC)c(Cl)ccc2c1CCCOc1cccc2ccccc12,"ring closure, isolated yield","[4]; (Z)-1,4-dichlorobut-2-ene/Cs2CO3, […]",45%
CCOC(=O)c1[nH]c2c(-c3c(CC)nn(C)c3CO)c(Cl)ccc2c1CCCOc1cccc2cc(F)ccc12,"ring closure, isolated yield","[4]; (Z)-1,4-dichlorobut-2-ene/Cs2CO3/NaI, […]",84%
CCOC(=O)c1[nH]c2c(-c3c(CO)nn(C)c3C)c(Cl)ccc2c1CCCOc1cccc2ccccc12,"ring closure, isolated yield","[4]; (Z)-1,4-dichlorobut-2-ene/Cs2CO3/NaI, […], 70.0 °C",71%
"Cc1c2c(nn1CCCN1CCN(C)CC1)COCCCCn1c(C(=O)O)c(CCCOc3cccc4ccccc34)c3ccc(Cl)c-2c31 (single isomer, unassigned; enantiomer 1) [Example 49, (+)-4-chloro-3-methyl-2-[3-(4-methylpiperazin-1-yl)propyl]-7-{3-[(naphthalen-1-yl)oxy]propyl}-2,10,11,12,13,15-hexahydropyrazolo[4′,3′:9,10][1,6]oxazacycloundecino[8,7,6-hi]indole-8-carboxylic acid (Enantiomer 1)]",IC50,MCL-1,1.7 nM
same,IC50,MCL1 protein,436 nM
same,IC50,"AMO-1 cells; Homo sapiens, AMO1, 72 h",1.5e-06 M
same,IC50,SUDHL10 cells [3],1e-06 M
